Earlier results, collected in patent US20210115268A1, “FUNCTIONALIZED QUATERNARY AMMONIUM HALIDES AND USE THEREOF” (Agency for Science, Technology and Research, priority 2015, published 2021).

Conditions: glass, cotton, polyester fibers or polyurethane foams treated with the silane; after repeated washings

CCCCCCCCCCCCCCCCCC[N+](C)(C)CCC[Si](OC)(OC)OC.[Cl-] [DC 5700, (MeO)3Si(CH2)3N^+Me2C18H37Cl]
algicidal and bactericidal properties, leaching: showed algicidal and bactericidal properties that are maintained after repeated washings and no apparent leaching was observed
